Square brackets hold non-standard residues; d marks the D form. Ends that are not written are not given here. Pra = C#CC[C@H](N)C(=O)O; Az8 = not defined here
Assays:
[1] = biological target: T1, GSK3β (Homo sapiens, UniProt P49841); test: Specificity ELISA, immobilized ligand probed with His-tagged kinases; conditions: A450 normalized to Akt1-S473E binding
T1 construct: a set of His-tagged active protein kinase domains from the AGC family; purchased Invitrogen
Description: (§1) Biotinylated ligand was immobilized on Streptavidin plates and probed with 25 nM His-tagged kinase followed by anti-Histag antibody-HRP conjugate. Values represent the mean A450 obtained from three experiments after normalization to Akt1-S473E binding. The error bars show the standard error.
(§2) The specificity of the anchor ligand, biligand, and triligand developed in Example 1 was analyzed using a battery of protein kinases. […] Akt1-S473E was expressed and purified as described above.
(§3) The relative affinity of each kinase was determined by probing with an anti-His6 antibody and normalizing the response to Akt1-S473E. All proteins were diluted in Akt blocking buffer to a final concentration of 24 nM prior to use. Ligands were diluted in Akt blocking buffer to a final concentration of 2.5 μM prior to use. 100 μL of each ligand (250 pmol) was added to each well of a HBC streptavidin-coated 96-well plate. The ligands were bound at 4° C. for 1 hour followed by addition of D-biotin to a final concentration of 500 μM. After 10 minutes at 4° C., the wells were washed three times with Akt blocking buffer and blocked overnight in 5% non-fat milk.
(§4) The wells were washed three times in Akt blocking buffer and 50 μL of active protein was applied to each well. After binding for 120 minutes at 4° C., the wells were washed three times in Akt blocking buffer to remove unbound protein. 50 μL of horseradish peroxidase-conjugated Anti-His6 antibody was added at a dilution of 1:100 (His Probe (H-3) HRP conjugate, Santa Cruz Biotechnology). The antibody-HRP conjugate was incubated for 60 minutes and the wells were washed 3 times in TBST and once in TBS. 50 μL of peroxidase substrate (KPL) was added and the resulting color change was quenched with 50 μL 1 M H2SO4. The A450 measured on a 96-well plate reader. […] The mean value for the triplicates was calculated and plotted and the error bars were generated from the standard error of the mean (GraphPad Prism).

[2] = biological target: Akt-S473E; test: ELISA with immobilized Akt-S473E, relative affinity of biotinylated ligands; assay type: binding, H. sapiens; conditions: read-out: binding affinity for Akt
Chain of Akt-S473E (P31749 144-449 limits assumed, stated change not applied): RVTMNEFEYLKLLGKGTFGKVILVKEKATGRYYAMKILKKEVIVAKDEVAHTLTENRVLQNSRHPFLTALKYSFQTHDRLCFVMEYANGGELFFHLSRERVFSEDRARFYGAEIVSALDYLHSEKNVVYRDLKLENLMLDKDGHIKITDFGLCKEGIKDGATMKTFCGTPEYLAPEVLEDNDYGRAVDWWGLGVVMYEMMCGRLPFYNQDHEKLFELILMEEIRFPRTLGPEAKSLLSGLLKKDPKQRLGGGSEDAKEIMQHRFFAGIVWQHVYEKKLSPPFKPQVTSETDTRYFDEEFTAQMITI
Description: Akt-S473E was immobilized on Ni-NTA plates and incubated with varying concentrations of biotinylated peptide. All values were normalized to the binding observed at saturation.
The affinity of the anchor ligand, biligand, and triligand developed in Example 1 was determined by ELISA with immobilized Akt-S473E.
3 μg of Akt-S473E was added to each well in a HisSorb Ni-NTA plate (Qiagen) in 50 μL of ELISA blocking buffer (25 mM Tris-Cl (pH=7.5), 150 mM NaCl, 10 mM MgCl2, 0.1% (v/v) Tween-20, and 4 mg/mL BSA). 50 μL of imidazole blocking buffer (25 mM Tris-Cl (pH=7.5), 150 mM NaCl, 10 mM MgCl2, 0.1% (v/v) Tween-20, 100 mM imidazole, and 4 mg/mL BSA) was added to the control wells. After 18 hours at 4° C., the wells were washed with ELISA blocking buffer and 50 μL of each ligand dilution was added in ELISA blocking buffer. The ligands were bound at 4° C. for 120 minutes followed by three washed in ELISA blocking buffer. 50 μL of horseradish peroxidase-conjugated streptavidin (SA-HRP, Thermo) was added (1:5000 dilution in ELISA blocking buffer) and incubated for 70 minutes at 4° C. […] 50 μL of peroxidase substrate (KPL) was added to generate the final signal which was quenched in 1 M H2SO4 and quantitated on a 96-well plate reader at X=450 nm. The Net A450 was calculated by subtracting the A450 of each blank well (No Akt-S473E) from the experimental well. […]

[3] = tested on: Akt1-S473E-T308P; test: [γ-32P]-ATP kinase activity assay, inhibition of Akt1-S473E-T308P; assay type: biochemical, H. sapiens; conditions: 120 μM compound, 30 minutes at room temperature, in the absence and presence of the conjugated small molecule inhibitor
Chain of Akt1-S473E-T308P (P31749 150-449 limits assumed, stated change not applied): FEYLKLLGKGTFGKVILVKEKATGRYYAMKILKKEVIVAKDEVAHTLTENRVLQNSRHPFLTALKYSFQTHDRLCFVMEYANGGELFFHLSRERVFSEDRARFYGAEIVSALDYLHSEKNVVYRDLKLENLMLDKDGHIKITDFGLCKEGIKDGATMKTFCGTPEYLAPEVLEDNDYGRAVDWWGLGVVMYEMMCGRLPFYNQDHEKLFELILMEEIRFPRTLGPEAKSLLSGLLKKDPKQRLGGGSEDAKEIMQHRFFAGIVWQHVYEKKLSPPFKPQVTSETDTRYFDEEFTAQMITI
Description: Peptide is SEQ ID NO:22. Kinase reactions were carried out with 120 μM of each compound for 30 minutes at room temperature. The amount of phosphorylated substrate was quantitated by liquid scintillation counting and the % Akt1-S473E-T308P activity determined based on the amount of product formed in the control kinase reaction. The values shown are the mean value of three experiments and the error bars are the standard deviation.
The activity of Akt-S473E-T308P was characterized by a [γ-^32P]-ATP kinase activity assay measuring the incorporation of ^32P into biotinylated crosstide peptide (Anaspec). Briefly, reactions containing 80 ng of Akt-S473E-T308P, 50 μM Bio-crosstide, and varying concentrations of ATP/[γ-^32P]-ATP (specific activity=1.5 mCi/mL).
(§5) Candidate sequences were scaled up and tested for their ability to inhibit Akt1-S473E-T308P activity. […] This peptide was re-synthesized as a C-terminal biotinylated peptide and used as the anchor in the biligand screen.

[4] = tested on: Akt1; test: Specificity ELISA, immobilized ligand probed with His-tagged kinases; set-up: species or system H. sapiens; conditions: A450 normalized to Akt1-S473E binding; kinase panel
Chain of Akt1 (P31749 150-408 limits assumed): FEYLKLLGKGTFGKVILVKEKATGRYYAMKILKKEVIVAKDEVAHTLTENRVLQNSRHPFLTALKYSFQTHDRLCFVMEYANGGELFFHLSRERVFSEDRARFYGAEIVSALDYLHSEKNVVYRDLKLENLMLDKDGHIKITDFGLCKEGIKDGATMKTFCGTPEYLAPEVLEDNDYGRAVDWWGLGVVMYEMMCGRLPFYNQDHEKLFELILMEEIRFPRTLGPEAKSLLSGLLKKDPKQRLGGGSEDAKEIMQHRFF
Description: as §1, §2, §3, §4

[5] = tested on: Akt1-S473E-T308P; test: Phosphorylation of biotinylated anchor peptide in standard kinase reaction; assay type: biochemical, H. sapiens; conditions: 30 min at room temperature, liquid scintillation counting
Description: Biotinylated peptides were incubated in a standard kinase reaction mixture for 30 min. at room temperature. A portion of the reaction was spotted onto a SAM2 Biotin Capture Membrane (Promega), washed, and analyzed by liquid scintillation counting. The total counts per minute (cpm) are shown for the anchor peptide (VFYRL-Bio(1) (SEQ ID NO:22) and VFYRL-Bio(2) (SEQ ID NO:22)) as well as the standard substrate peptide (Bio-Crosstide). The number in parentheses identifies the diastereomer based on retention time in RP-HPLC.
as §5

[6] = tested on: Akt; test: Immunoprecipitation of Akt from OVCAR3 cell lysates with immobilized ligands; assay type: binding; conditions: EGF and insulin induced or control, Western blot with pan-Akt antibody
Description: A representative 12% gel stained with Coomassie and imaged. Lane 1: Lysate, Lane 2: Anchor resin, Lane 3: Biligand resin, Lane 4: Triligand resin, Lane 5: 5G3 mAb resin.
After 18 hours at 4° C., resins were washed exhaustively, eluted with SDS-PAGE sample buffer, and analyzed by Western blotting. 1. Blank resin, 2. Anchor, 3. Biligand, 4. Triligand, 5. [5G3] mAb, L. lysate.
For the IP experiments, the anchor, biligand, and triligands were immobilized on streptavidin-agarose, and each resin was panned with OVCAR3 cell lysates obtained from untreated cells or cells stimulated with a combination of epidermal growth factor (EGF) and insulin.
OVCAR3 cells were grown in RPMI-1640 media containing 10% fetal bovine serum, penicillin, and streptomycin. Passage 4 cells were grown to ˜60% confluence and treated with insulin and EGF at final concentration of 10 μg/mL and 20 ng/mL respectively (induced) or mock treated (control). Cells were grown for an additional 24 hours and then lysed with lysis buffer (10 mM Tris-Cl (pH=7.5), 100 mM NaCl, 1% (v/v) Triton X-100, 0.1% SDS (w/v), 0.5% deoxycholate, 1 mM DTT, 1 mM EDTA, 1× PhosStop phosphatase inhibitors (Roche), 1× Complete protease inhibitors (Roche). Cell lysate protein concentrations were determined by Bradford assays. […]

[7] = biological target: T2, E17K mutant Akt1 PH Domain (Homo sapiens, UniProt P31749, E17K); test: Streptavidin-agarose pulldown assay; assay type: binding; conditions: Western blot, relative protein band sizes
T2 construct: The first 124 N-terminal amino acids from full length Akt1 were used as the PH Domain DNA; thrombin cleavage site (C); 6-His (C); made in house; host or cells: E. coli
T2 sequence (P31749 1-124 E17K): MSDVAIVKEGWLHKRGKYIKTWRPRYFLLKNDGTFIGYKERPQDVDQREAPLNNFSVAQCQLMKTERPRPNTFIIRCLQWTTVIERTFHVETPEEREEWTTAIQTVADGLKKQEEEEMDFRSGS
Description: (§6) These resins were then incubated with either (a) WT or (b) E17K Mutant PHD to measure the amount of pulldown for each potential anchor ligand. Peptide eefef is SEQ ID NO:5. Peptide yleaf is SEQ ID NO:16.
(§7) Pulldown assays were done on Streptavidin Agarose resin from Novachem. The resin was incubated with N-terminally biotinylated anchor peptide candidates identified via the ClusterLigand sequence analysis. The anchor candidate coated beads were then incubated with both wildtype and mutant protein to compare the selectivity of the ligands, as well as the binding ability.
(§8) Assays were done with 50 uL of Streptavidin-Agarose slurry (25 uL resin) in Spin-X tubes. Resin was aliquotted into 14 tubes—six ligands plus a blank tested against two different proteins, then washed three times with 1×TBS with 0.25% IPEGAL detergent added. Each set of tubes was incubated with 170 nmol of the appropriate biotinylated ligand in 200 uL 1×HEPES (10 mM HEPES, 150 mM NaCl, 0.25% IPEGAL, 5 mM EDTA) or plain buffer for the blank. Ligand binding was done for one hour at room temperature, then resin was washed three times with 1×HEPES. Resin was blocked with 1×HEPES with 5% BSA for two hours. The anchor-coated resin was then incubated with either wildtype or mutant expressed PH domain protein overnight (˜16 hours) in cold room (4° C.). Protein was spun out of tubes, and the resin was washed three times with high salt TBS, then incubated for five minutes in the high salt buffer. The resin was then washed three times with the 1×TBS buffer, and spun out to dry completely. 50 uL of denaturing SDS gel loading buffer with 10% B-mercaptoethanol was added to the samples and they were incubated at 95° C. for ten minutes to denature. The gel loading buffer was spun out of the Spin-X tubes and the samples were run on an Any KD BioRad Premade Gel under denaturing conditions. Gel was transferred to nitrocellulose membrane and western blotted. Proteins were detected using rabbit polyclonal anti-Akt1 antibody (ab64148, Abcam) and an anti-rabbit HRP conjugated secondary anti-body then developed with West Pico Chemilluminescent substrate (Pierce).

[8] = biological target: T3, wildtype Akt1 PH Domain (Homo sapiens, UniProt P31749); test: Streptavidin-agarose pulldown assay; assay type: binding; conditions: Western blot, relative protein band sizes
T3 construct: The first 124 N-terminal amino acids from full length Akt1 were used as the PH Domain DNA; thrombin cleavage site (C); 6-His (C); made in house; host or cells: E. coli
T3 sequence (P31749 1-124): as the sequence (P31749 1-124 E17K) above, with K17E counted along it
Description: as §6, §7, §8

T1 sequence (P49841 56-340 limits assumed, species assumed): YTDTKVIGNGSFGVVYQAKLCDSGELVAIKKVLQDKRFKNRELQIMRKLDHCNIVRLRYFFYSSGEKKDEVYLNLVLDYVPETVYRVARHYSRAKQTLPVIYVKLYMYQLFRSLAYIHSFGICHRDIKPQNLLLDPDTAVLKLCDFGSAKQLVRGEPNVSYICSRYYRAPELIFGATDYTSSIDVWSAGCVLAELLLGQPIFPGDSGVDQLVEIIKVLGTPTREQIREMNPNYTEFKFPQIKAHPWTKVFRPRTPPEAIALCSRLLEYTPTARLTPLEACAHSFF

Row | binding to GSK3β [1] | Kd [2] | inhibition of Akt1 [3] | phosphorylation by Akt in vitro [5] | Substance | specificity / selectivity for Akt1 [4] | immunoprecipitation of Akt [6] | pulldown of E17K mutant PH Domain [7] | pulldown of wildtype PH Domain [8]
1 | only modest binding | > 25 µM | ~95% | not phosphorylated | Az8-VFYRLGY-CONH2 [anchor ligand] | very specific for the Akt1 protein | – | – | –
2 | significant cross-reactivity | – | – | – | biligand: anchor ligand Az8-VFYRLGY linked by 1,4-triazole to secondary ligand Pra-FWFLRG-CONH2; biotinylated for assays (peptide 2 [Pra]FWFLRG-NH2; not fully specified (N-terminus, C-terminus, bridges); reading uncertain; also: biotinylated for assays, triazole at chain B 1 to a chain's N-terminus) | reduced selectivity | increased affinity | – | –
3 | – | – | – | – | eefef ([dE][dE][dF][dE][dF]; not fully specified (N-terminus); printed as eefef; also: biotinylated, position not confirmed) | – | – | the least pulldown for the mutant protein | the only pulldown of the wildtype protein
4 | – | – | – | – | yleaf ([dY][dL][dE][dA][dF]; not fully specified (N-terminus); printed as yleaf; also: biotinylated, position not confirmed) | – | – | the greatest binding to the mutant | the least binding to the wildtype
